Patent US9617276B2, “Compounds and methods for treating AIDS and HIV infections” (priority 2009, dated 2017)
Read-outs that look alike come from different tables or passages of the source.

What was measured:
HIV-1NL4-3 = assay: p24 Gag inhibition in MT-4 cells, HIV-1NL4-3; type: cell-based
Procedure: All assays were performed in duplicate or triplicate. […] All assays were performed in duplicate or triplicate.

HIV-1APV5μM = assay: microbe, parasite or virus in culture; type: cell-based; conditions: for EC50: Human immunodeficiency virus 1, MT4, read-out: EC50 (μM), HIV-1APV5 μM; for n-fold change in EC50, HIV-1APV5 μM: compared to wild-type HIV-1NL4-3
Procedure: (§1) The susceptibility of HIV-1LAI and primary HIV-1 isolates to various drugs were determined as described previously (Koh et al. 2003 Antimicrob Agents Chemother 47:3123-9). Briefly, MT-2 cells (2×10^4/ml) were exposed to 100 50% tissue culture infectious doses (TCID50S) of HIV-1LAI, in the presence or absence of various concentrations of drugs in 96-well microculture plates and were incubated at 37° C. for 7 days. After 100 μl of the medium was removed from each well, 3-(4,5-dimetylthiazol-2-yl)-2,5-diphenyltetrazolium bromide (MTT) solution (10 μl, 7.5 mg/ml in phosphate-buffered saline) was added to each well in the plate, followed by incubation at 37° C. for 3 h. […] All assays were performed in duplicate or triplicate. To determine the susceptibility of primary HIV-1 isolates to drugs, phytohemagglutinin-activated peripheral blood mononuclear cells (PHA-PBMCs; 106/ml) were exposed to 50 TCID50S of each. The target cells were exposed to HIV-1104pre or drug-resistant HIV-1 in the presence or absence of various concentrations of drugs and were incubated for 7 days. Upon the conclusion of the culture, the amounts of p24 Gag protein in the supernatants were determined using a fully automated chemiluminescent enzyme immunoassay system (Lumipulse F; Fujirebio Inc., Tokyo, Japan) (Maeda et al. 2001 J Biol Chem 276:35194-200). To determine the drug susceptibility of certain laboratory HIV-1 strains, MT-4 cells were used as target cells. In brief, MT-4 cells (10^5/ml) were exposed to 100 TCID50S of drug-resistant HIV-1 strains in the presence or absence of various concentrations of drugs and on day 7 of culture, the supernatant was harvested and the amounts of p24 Gag protein were determined. […] All assays were performed in duplicate or triplicate.
(§2) Numbers in parentheses represent n-fold changes in EC50s for each isolate compared to the EC50s for wild-type HIV-1NL4-3.

HIV-1AZV5μM = assay: microbe, parasite or virus in culture; type: cell-based; conditions: for EC50: Human immunodeficiency virus 1, MT4, read-out: EC50 (μM), HIV-1AZV5 μM; for n-fold change in EC50, HIV-1AZV5 μM: compared to wild-type HIV-1NL4-3
Procedure: as §1, §2

HIV-1216-P50 = assay: microbe, parasite or virus in culture; type: cell-based, HIV-1; conditions: for EC50: Human immunodeficiency virus 1, MT4, read-out: EC50 (μM), HIV-1216-p50; for n-fold change in EC50, HIV-1216-p50: compared to wild-type HIV-1NL4-3
Procedure: (§3) Briefly, MT-2 cells (2×10^4/ml) were exposed to 100 50% tissue culture infectious doses (TCID50S) of HIV-1LAI, in the presence or absence of various concentrations of drugs in 96-well microculture plates and were incubated at 37° C. for 7 days. After 100 μl of the medium was removed from each well, 3-(4,5-dimetylthiazol-2-yl)-2,5-diphenyltetrazolium bromide (MTT) solution (10 μl, 7.5 mg/ml in phosphate-buffered saline) was added to each well in the plate, followed by incubation at 37° C. for 3 h. […] All assays were performed in duplicate or triplicate. […] To determine the drug susceptibility of certain laboratory HIV-1 strains, MT-4 cells were used as target cells. In brief, MT-4 cells (10^5/ml) were exposed to 100 TCID50S of drug-resistant HIV-1 strains in the presence or absence of various concentrations of drugs and on day 7 of culture, the supernatant was harvested and the amounts of p24 Gag protein were determined. […] All assays were performed in duplicate or triplicate.
as §2

HIV-1286-1μM = assay: microbe, parasite or virus in culture; type: cell-based, HIV-1; conditions: for EC50: Human immunodeficiency virus 1, MT4, read-out: EC50 (μM), HIV-1286-1 μM; for n-fold change in EC50, HIV-1286-1 μM: compared to wild-type HIV-1NL4-3
Procedure: as §3, §2

HIV-1396-1μM = assay: microbe, parasite or virus in culture; type: cell-based, HIV-1; conditions: for EC50: Human immunodeficiency virus 1, MT4, read-out: EC50 (μM), HIV-1396-1 μM; for n-fold change in EC50, HIV-1396-1 μM: compared to wild-type HIV-1NL4-3
Procedure: as §3, §2

HIV-1246-1μM = assay: microbe, parasite or virus in culture; type: cell-based, HIV-1; conditions: for EC50: Human immunodeficiency virus 1, MT4, read-out: EC50 (μM), HIV-1246-1 μM; for n-fold change in EC50, HIV-1246-1 μM: compared to wild-type HIV-1NL4-3
Procedure: as §3, §2

HIV-1MDR/JSL = assay: microbe, parasite or virus in culture; type: cell-based; conditions: for EC50: Human immunodeficiency virus 1, read-out: EC50 (μM), HIV-1MDR/JSL (NSI); for n-fold change of EC50, HIV-1MDR/JSL: compared to wild-type HIV-1ERS104pre
Procedure: as §1
(§4) These clinical strains contained 9 to 14 amino acid substitutions in the protease-encoding region, which have reportedly been associated with HIV-1 resistance to various PIs.
(§5) Amino acid substitutions identified in the protease-encoding region compared to the consensus type B sequence cited from the Los Alamos database include L63P in HIV-1ERS104pre; L10I, K14R, L33I, M36I, M46I, F53I, K55R, I62V, L63P, A71V, G73S, V82A, L90M, and I93L in HIV-1MDR/B; L10I, I15V, K20R, L24I, M36I, M46L, I54V, I62V, L63P, K70Q, V82A, and L89M in HIV-1MDR/C; L10I, V11I, T12E, I15V, L19I, R41K, M46L, L63P, A71T, V82A, and L90M in HIV-1MDR/G; L10I, K14R, R41K, M46L, I54V, L63P, A71V, V82A, L90M, I93L in HIV-1MDR/TM; L10I, K43T, M46L, I54V, L63P, A71V, V82A, L90M, and Q92K in HIV-1MDR/MM; L10I, L24I, I33F, E35D, M36I, N37S, M46L, I54V, R57K, I62V, L63P, A71V, G73S, and V82A in HIV-1MDR/JSL. HIV-1ERS104pre served as a source of wild-type HIV-1. EC50s were determined by using PHA-PBMs as target cells, and inhibition of p24 Gag protein production by each drug was used as an end point. Numbers in parentheses represent n-fold changes of EC50s for each isolate compared to EC50s for wild-type HIV-1ERS104pre.

HIV-1MDR/MM = assay: microbe, parasite or virus in culture; type: cell-based; conditions: for EC50: Human immunodeficiency virus 1, read-out: EC50 (μM), HIV-1MDR/MM (NSI); for n-fold change of EC50, HIV-1MDR/MM: compared to wild-type HIV-1ERS104pre
Procedure: as §1, §4, §5

[1] = Human immunodeficiency virus 1, MT4, read-out: EC50 (μM), HIV-1NL4-3, Table 7, mean ± 1 SD
[2] = Human immunodeficiency virus 1, MT4, read-out: EC50 (μM), HIV-1NL4-3, Table 9, mean ± 1 SD
[3] = Human immunodeficiency virus 1, MT4, Table 7, mean ± 1 SD, read-out: EC50 (μM), HIV-1NL4-3
[4] = Human immunodeficiency virus 1, MT4, Table 9, mean ± 1 SD, read-out: EC50 (μM), HIV-1NL4-3

Row | SMILES | EC50 (HIV-1NL4-3; [1]) [µM] | EC50 (HIV-1NL4-3; [2]) [µM] | EC50 (HIV-1APV5μM) [µM] | n-fold change in EC50, HIV-1APV5 μM (HIV-1APV5μM) | EC50 (HIV-1AZV5μM) [µM] | n-fold change in EC50, HIV-1AZV5 μM (HIV-1AZV5μM) | EC50 (HIV-1216-P50) [µM] | n-fold change in EC50, HIV-1216-p50 (HIV-1216-P50) | EC50 (HIV-1286-1μM) [µM] | n-fold change in EC50, HIV-1286-1 μM (HIV-1286-1μM) | EC50 (HIV-1396-1μM) [µM] | n-fold change in EC50, HIV-1396-1 μM (HIV-1396-1μM) | EC50 (HIV-1246-1μM) [µM] | n-fold change in EC50, HIV-1246-1 μM (HIV-1246-1μM) | EC50 (HIV-1MDR/JSL) [µM] | EC50 (HIV-1MDR/MM) [µM] | n-fold change of EC50, HIV-1MDR/MM (HIV-1MDR/MM) | n-fold change of EC50, HIV-1MDR/JSL (HIV-1MDR/JSL) | EC50 (HIV-1NL4-3; [3]) [µM] | EC50 (HIV-1NL4-3; [4]) [µM]
1 | COc1ccc2c(c1)OCCCC=CCCCCN(CC(O)C(Cc1ccccc1)NC(=O)OC1COC3OCCC13)S2(=O)=O (stereo not shown) [Compound 14b] | 0.009 ± 0.0006 | 0.006 ± 0.005 | > 1 | > 111 | 0.03 ± 0.006 | (3) | 0.19 ± 0.06 | (32) | > 1 | > 167 | 0.25 ± 0.05 | (42) | 0.33 ± 0.03 | (55) | 0.21 ± 0.032 | 0.055 ± 0.025 | (8) | – | – | –
2 | COC(=O)N[C@H](C(=O)N[C@@H](Cc1ccccc1)[C@@H](O)CN(Cc1ccc(-c2ccccn2)cc1)NC(=O)[C@@H](NC(=O)OC)C(C)(C)C)C(C)(C)C [AZV, Atazanavir] | 0.004 ± 0.0004 | 0.0032 ± 0.0001 | 0.006 ± 0.002 | (2) | > 1 | > 250 | 0.014 ± 0.003 | (4) | 0.021 ± 0.012 | (7) | 0.024 ± 0.002 | (8) | 0.032 ± 0.003 | (10) | 0.43 ± 0.036 | 0.18 ± 0.021 | (39) | (215) | – | –
3 | CCC[C@@]1(CCc2ccccc2)CC(O)=C([C@H](CC)c2cccc(NS(=O)(=O)c3ccc(C(F)(F)F)cn3)c2)C(=O)O1 [TPV, Tipranavir] | 0.32 ± 0.07 | 0.29 ± 0.05 | 0.22 ± 0.089 | (0.7) | 0.41 ± 0.047 | (1) | 0.029 ± 0.0004 | (0.1) | 0.037 ± 0.001 | (0.1) | 0.042 ± 0.002 | (0.1) | 0.095 ± 0.089 | (0.3) | 0.23 ± 0.049 | 0.36 ± 0.06 | (3) | (2) | – | –
4 | Cc1cccc(C)c1OCC(=O)N[C@@H](Cc1ccccc1)[C@@H](O)C[C@H](Cc1ccccc1)NC(=O)[C@H](C(C)C)N1CCCNC1=O [LPV, lopinavir] | – | – | > 1 | > 22 | > 1 | > 22 | 0.19 ± 0.06 | (5) | > 1 | > 23 | 0.28 ± 0.05 | (6) | 0.33 ± 0.04 | (8) | > 1 | > 1 | > 29 | > 29 | 0.046 ± 0.025 | 0.035 ± 0.004
5 | COc1ccc2c(c1)OCCC=CCCCCN(CC(O)C(Cc1ccccc1)NC(=O)OC1COC3OCCC13)S2(=O)=O (stereo not shown) [Compound 14c] | 0.005 ± 0.001 | 0.004 ± 0.001 | > 1 | – | 0.023 ± 0.005 | – | 0.094 | – | > 1 | – | 0.073 ± 0.011 | – | 0.3 ± 0.01 | – | 0.073 ± 0.07 | 0.033 ± 0.01 | – | – | – | –
6 | CC(C)CN(C[C@@H](O)[C@H](Cc1ccccc1)NC(=O)O[C@H]1CCOC1)S(=O)(=O)c1ccc(N)cc1 [APV, Amprenavir] | – | – | > 1 | – | 0.28 ± 0.06 | – | 0.26 ± 0.03 | – | > 1 | – | 0.35 ± 0.0002 | – | 0.34 ± 0.015 | – | 0.62 ± 0.02 | 0.21 ± 0.222 | – | – | 0.034 ± 0.001 | 0.032 ± 0.001
